In BigSolDB 2.1:
Values joined by “and” are separate entries in the source; they are usually repeats but may differ in a detail not shown here. Identical values can stand only once.

CC(C)(C)C(O)/C(=C\c1ccc(Cl)cc1)n1cncn1 (stereo not drawn)
solubility (mole fraction)
Conditions	278.15 K	283.15 K	288.15 K	293.15 K	298.15 K	303.15 K	308.15 K	313.15 K	318.15 K	323.15 K
in ethyl acetate	0.0106	0.0112	0.016	0.0167	0.0187	0.0201	0.0253	0.028	0.035	0.0536
in ethylene glycol	0.000907	0.000983	0.00103	0.00118	0.00128	0.00166	0.0018	0.00202	0.00248	0.0025
in isobutanol	0.0157	0.0177	0.0185	0.0197	0.0225	0.0257	0.0261	0.0365	0.0425	0.0566
in isobutyl acetate	0.00727	0.0102	0.0116	0.0136	0.0159	0.0199	0.0219	0.0263	0.0335	0.0423
in isopropanol	0.0112	0.0122	0.0141	0.0157	0.0189	0.0248	0.0268	0.0326	0.038	0.047
in methyl acetate	0.0084	0.00938	0.0116	0.0137	0.0151	0.0184	0.0214	0.0236	0.0318	0.0383
in n-butanol	0.015	0.0171	0.0196	0.0221	0.0249	0.0309	0.0355	0.0406	0.0475	0.0623
in n-butyl acetate	0.0118	0.0131	0.0153	0.0182	0.0204	0.0247	0.0291	0.0332	0.0364	0.0527
in n-octanol	0.0159	0.0177	0.02	0.0225	0.0238	0.0255	0.0287	0.0369	0.044	0.0511
in n-propanol	0.0143	0.0163	0.0196	0.0218	0.0231	0.0263	0.0273	0.0332	0.0441	0.0497
in n-propyl acetate	0.0114	0.0123	0.0147	0.0169	0.0269	0.0277	0.0362	0.037	0.052	0.0556
in propylene glycol	0.00332	0.00359	0.00423	0.00483	0.00737	0.00749	0.00874	0.0101	0.0139	0.0174
in water	2.2e-06 and 3.2e-06	2.3e-06 and 3.6e-06	2.4e-06	2.6e-06	2.7e-06	2.8e-06	3e-06	–	–	4.2e-06
